melting point	Compound
83 to 85 °C	CC1(C)Oc2cc3nonc3cc2C(NC(=O)NCCCCl)C1O (configuration not stated)
153 to 155 °C	COc1cccc(Cc2cc(F)ccc2O)c1
180 to 182 °C	N#Cc1c(N2CCCCC2)cc(-c2ccc(F)cc2)c2c1-c1ccccc1C2=O
90 to 91 °C	N#Cc1ccc(-c2n[nH]cc2C(F)(F)F)cc1SCC(F)(F)F
80 to 82 °C	CCOC(=O)c1cc2n(c1)CN(C(=O)OCC)c1ccccc1-2
210 °C	OC(=Cc1ccccc1)C(O)C(O)C(O)C(O)C(O)=Cc1ccccc1 (configuration not stated)
248 °C	O=C(Cc1ccccc1O)N1C[C@@H]2SCCC(c3ccccc3)(c3ccccc3)[C@@H]2C1 (racemic)
172 to 173 °C	Nc1nc(NCCOc2ccccc2)nc(-c2cc(Cl)ccc2Cl)n1
97 to 100 °C	Cc1ccc(-c2nc(C(F)(F)F)nc(Cl)c2-c2ccccc2)cc1
156 to 157 °C	Clc1ccc([C@H]2Cc3cnc(Nc4ccccc4)nc3-c3ccccc32)cc1Cl
156 to 157 °C	CSc1sc(NC(=O)OC(C)(C)C)c(NC(=O)OC(C)(C)C)c1C#N
113 to 117 °C	CCOC(=O)NC1(c2cccs2)CCC2(CC1)OCCO2
143 to 144 °C	CCOc1cc(CCC2OC(=O)NC2=O)ccc1OCc1ccccc1 (configuration not stated)
117 to 118 °C	Cc1cn(C2C=CC(CO)O2)c(=O)[nH]c1=S (configuration not stated)
112 to 115 °C	Cc1cn(COCCI)c(=O)[nH]c1=O
145 to 150 °C	O=Cc1cc2c3ccccc3ccc2c2occc12
213 to 215 °C	Oc1ccc(O)c2c1CCCC2
86 to 87 °C	CCCCCCCCCCCCn1nnc(CCC(=O)Nc2ccc(F)cc2F)n1
64 to 66 °C	CCOCc1cc2ccc(OC)cc2oc1=O
125 to 132 °C	CCCN(CCc1coc2c(OC)cccc12)C1COc2c(F)ccc(C(N)=O)c2C1 (configuration not stated)
91 to 96.8 °C	COc1cc(-c2ccc(NC(=O)OC(C)(C)C)cc2)c(C(C)=NOCc2ccc([N+](=O)[O-])cc2)cc1O
150 to 151 °C	COc1ccc2c(c1)C(=O)c1c-2c(N2CCNCC2)nc2ccccc12
196 to 198 °C	COc1ccc(-c2c(C)cc3c(O)cc(C)nn23)c(Cl)c1
67 to 69 °C	O=C(NCCCCC1CCSS1)NN1CCCCC1 (configuration not stated)
87 to 89 °C	OCC1OC(n2cnc3c(NCC4(c5ccccc5)CCCCC4)ncnc32)C(O)C1O (configuration not stated)

melting point	Compound
133 to 134 °C	CCCCOCCOc1ccc(-c2cc(/C=C(\C)C(=O)O)c3c(c2)CCCN3C)cc1
110 to 112 °C	CCOC(=O)C(C)c1ccc(-c2cn3ccccc3n2)cc1 (configuration not stated)
143 to 144 °C	C=CCOc1ccc(C(=O)C=Cc2cc(OC)c(C)c(OC)c2)cc1
144 to 145 °C	COc1ccc(C(C)(O)c2cccc(OCc3nc(-c4ccccc4)oc3C)c2)c(OCCOC(C)=O)c1 (configuration not stated)
139 °C	CC(C)(O)C(=O)c1ccc(OCC(N)=O)cc1
211 to 213 °C	O=C(O)c1cc(-n2c(-c3cccs3)cc3c2CCCC3)ccc1O
139 to 140 °C	Cn1c(-c2ccc(Cl)cc2)cc2ncccc2c1=O
58 to 60 °C	CSc1ncc(CN)c(NC2CCCC2)n1
> 250 °C	NC(C(=O)O)c1ccc(C(=O)O)c(O)c1CCCc1ccccc1 (configuration not stated)
181 to 182 °C	CC1(C)OC(=O)Nc2ccc(-c3cccc(F)c3)cc21
124 to 125 °C	CC1OC(n2cc(F)c(NC(=O)c3ccc4c(c3)OCO4)nc2=O)C(O)C1O (configuration not stated)
111 to 112 °C	CCOC(=O)CCC(=O)N[C@@H](CC(C)C)C(=O)N[C@@H](C(C)C)[C@@H](O)c1c(-c2ccccc2)c1=O
108 to 110 °C	COC(=O)CCn1cc(Cc2cccnc2)c2cc(CCC(=O)O)ccc21
117 to 119 °C	CCCCCCCCCC(=O)OC1CCC2(CC(=O)N(CCCCN3CCN(c4nsc5ccccc45)CC3)C(=O)C2)C1 (configuration not stated)
96 to 97 °C	CC(C)c1nn(-c2ccc(Br)cn2)cc1CCCO
> 300 °C	Fc1ccc(-c2cnn3cnnc3n2)cc1
121 to 122 °C	N#Cc1c(Cl)cccc1C(Cl)(Cl)Cl
65 °C	Cc1ccc(OCC(=O)c2ccccc2)cc1
215 to 217 °C	O=c1[nH]c(-c2ccccn2)c(I)c(=O)n1-c1ccc(OC(F)(F)F)cc1
260 to 262 °C	Oc1ccc(-c2nc3cc(O)c(Cl)cc3o2)cc1
141 to 143 °C	CCc1nc2c(c(C)c(C)n3nnnc23)n1CCOCCN1CCCC1=O
90 to 96 °C	CN(C)C(=O)c1cccc(CN2C(=O)C3(COc4cc5c(cc43)OCCO5)c3ccccc32)c1 (configuration not stated)
226 to 228 °C	C[C@H]1CCCN(C(=O)[C@H]2Cc3cc(N4CCCCC4)ccc3N2c2cccnn2)C1
127 to 128 °C	CCCNC(=O)c1cc2cc(OCCNC[C@H](O)COc3ccccc3)ccc2o1
237 to 239 °C	Nc1ncc(-c2ccc([N+](=O)[O-])cc2-c2cccc(Cl)c2Cl)c(N)n1

melting point	Compound
231 to 233 °C	CC(C)(C)OC(=O)N1CCN(C(=O)OC(C)(C)C)C(C(=O)O)C1 (configuration not stated)
193 to 195 °C	CC1Cc2cc3c(cc2C(c2ccc(NC=O)cc2)=NN1C=O)OCO3 (configuration not stated)
174 to 176 °C	O=C(O)CCn1nc2ccc(S)nn2c1=O
53 to 55 °C	CC(C)(C)OC(=O)[C@@H]1CCC(=O)N1C(=O)OC(C)(C)C
205 to 207 °C	O=C1OCc2c1cc1ccc(Cl)cc1c2-c1ccc(Cl)cc1
114 to 115 °C	O=C(O)CCc1cn(Cc2ccc(OCc3csc(-c4ccco4)n3)cc2)cc1-c1ccccc1
264 to 265 °C	CN(C)C(=O)Sc1cc(SC(=O)N(C)C)cc(C(N)=O)c1
130 to 134 °C	CCON=C(C)c1ccc2c(c1)ncn2-c1cccc(COCc2ncnn2C)c1
232 to 233 °C	COc1cccnc1C(O)c1ccc(NC(=O)C2=Cc3cc(-c4ccc(C)cc4)ccc3OCC2)cc1 (configuration not stated)
162 °C	O=C(NCCCCN1CCC(c2ccc3c(c2OCCO)CCCC3)CC1)c1ccc(-c2ccc(Cl)cc2)cc1
94 °C	CCCCCCS(=O)(=O)c1ccc(Oc2ccc(Br)cc2)nc1
97 to 97.5 °C	COc1ccc(C=CC(=O)c2ccc(OC)c(CC=C(C)C)c2O)cc1
182 to 186 °C	CCCCc1nc(Cl)c(CO)n1Cc1ccc(-c2ccccc2-c2nnnn2-c2ccc([N+](=O)[O-])cc2)cc1
65 to 67 °C	CC(=O)CSc1ncc(C)n1C
148 to 149 °C	COc1ccc(C(O)(Cc2ccncc2)c2ccccc2)cc1OC1CCCC1 (configuration not stated)
162 to 165 °C	CC1(C)CC(NS(C)(=O)=O)c2cc(OCc3ccccc3)ccc2O1 (configuration not stated)
260 °C	O=C(O)CCCOc1ccc2nc3c(cc2c1)CC(=O)N3
138 to 139 °C	C/C(=C\c1ccc(C(=O)OCCO)cc1)c1ccc2c(c1)C(C)(C)CCC2(C)C
90 to 92 °C	COc1ccc(C(CC#N)CC#N)cc1O
34.5 to 36 °C	CCOC(=O)CCCCCBr
205 to 206 °C	COc1cc2ncnc(Nc3cc(Cl)cc(N=[N+]=[N-])c3)c2cc1OC
250 °C	CCNC1=C(c2ccc(O)cc2)C(=O)c2cc(O)ccc21
219 to 221 °C	CN(C)CCOCC1=Nc2cc(Cl)ccc2S(=O)(=O)N1
94 to 96 °C	CC(C)N1C(=O)c2cnc(Cl)cc2C1=O
85 to 86 °C	C=CCc1c(Cl)nc(NC=O)nc1Cl

melting point	Compound
62 to 63 °C	CN(C)CCCCOc1ccc(-c2nnc(CSCCOc3ccccc3)o2)cc1
86 to 88 °C	COc1ccccc1OCC1(COc2ccccc2OC)NCCS1
48 to 49 °C	CCOc1cc(C(=O)CCCC2CCCCC2)c(O)cc1C
136 to 138 °C	NC(=O)c1ccc(-c2ccc(C(CC3CCOCC3)c3ccc(S(=O)(=O)C4CC4)cc3)[nH]2)nc1 (configuration not stated)
226 °C	CC(C)N1C(=O)C(=O)NC1=NC(=NC(=O)OC(C)(C)C)Nc1ccc(Cl)c(Cl)c1
185 to 186 °C	Cc1nc(N2C[C@H](C)N(Cc3ccc(F)cc3)C2=O)sc1C(N)=O
156 °C	Cn1cc(-c2ccccc2)c(=O)c(-c2cc(Cl)ccc2Cl)c1
153 to 154 °C	Cc1nc2nccc(-c3cccc(C(F)(F)F)c3)n2n1
80 to 81 °C	COc1ccccc1N1CCN(CCCCN2CSCC2=O)CC1
100 to 102 °C	O=C1OC(C(O)CO)CCN1Cc1ccccc1 (configuration not stated)
178 to 185 °C	NCCCCC(OP(=O)(O)CCCCc1ccc(F)cc1)C(=O)N1CCCC1C(=O)O (configuration not stated)
167 to 170 °C	CCCN(CCN1CCN(C(=O)c2n[nH]c3ccccc23)CC1)C1CCc2c(O)cccc2C1 (configuration not stated)
72 to 74 °C	O=C(Cl)c1cccnc1Oc1cccc(Cl)c1
186 to 190 °C	CC(C)C1(C)N=C(c2ncc(CN(C)C)cc2C(=O)O)NC1=O (configuration not stated)
134 to 135 °C	O=C(Nc1ccc(C(F)(F)F)nc1C1CCN(CC=Cc2ccc(Cl)cc2)CC1)c1ccnc(Cl)c1
135 to 136 °C	COc1cc2c(cc1OC)-c1c(N3CCNCC3)nc3ccccc3c1C2=O
230 to 232 °C	CC1(N2Cc3cc(CNC(=O)Cc4ccc(Cl)cc4)ccc3C2=O)CCC(=O)NC1=O (configuration not stated)
209 to 212 °C	CC1=C2c3c(cnc4cc(Cl)ccc34)NC2CCN1 (configuration not stated)
140 to 141 °C	Cc1nc(NC(=O)c2ccccc2OC(F)(F)F)sc1C(=O)NCc1ccccc1
121 to 123 °C	Cc1cc(C2(C(F)(F)F)CN=C(c3ccc(Cl)cc3)S2)ccc1NC(=O)c1cccc(I)c1C(=O)NC(C)C (configuration not stated)
75 to 77 °C	COC1OCC2C(O)C3CCCCC3CC12 (configuration not stated)
317 to 321 °C	Nc1nc(N)nc(C2CCC(c3nc(N)nc(N)n3)CC2)n1 (configuration not stated)
243 to 244 °C	COc1ccc2cc(CN3CCC(NC(=O)NC(=O)c4ccccc4)CC3)ccc2c1
105 to 107 °C	CCCCCCCCCCCCc1ccc(C(OC(C)=O)C(COC(C)=O)NC(C)=O)s1 (configuration not stated)

Compound	melting point
COc1cc(C)cc(OC)c1C1=NC(NC(=O)C(N)Cc2ccccc2)C(=O)N(C)c2ccccc21 (configuration not stated)	165 °C
O=Cc1ccc2c(c1)c1ccccc1n2CCCCCCCCCCn1c2ccccc2c2cc(C=O)ccc21	122 °C
CC(=O)Nc1ccc(SCCN2CC=C(c3ccc(F)cc3)CC2)cc1	150 to 152 °C

— a melting point compilation (Tetko et al.; mined from patent text by program, amines drawn as free bases though some values may be those of a salt)
